In patent US6780883B2, “Amide inhibitors of microsomal triglyceride transfer protein” (Warner-Lambert Company, priority 1998, dated 2004):
Like-named read-outs stand apart in the source and are kept apart here.

Columns and labels:
[1] = target: apolipoprotein(a), [apo(a)], apolipoproteinB-100, [apoB-100], coupling reaction that generates Lp(a) (Homo sapiens, UniProt P04114+P08519); test: LPABC screen: lipoprotein(a) biochemical coupling assay, Lp(a) content by ELISA; conditions: recombinant apo(a) 17-kringle (293 cell media) + HepG2 conditioned media, 67 minutes, 37° C., 0.3 to 50 μM compound; read-out: Lp ABC IC50
Experimental: LPABC Screen The lipoprotein(a), [Lp(a)], biochemical coupling assay (LPABC) is used to characterize inhibitors of the apolipoprotein(a), [apo(a)], apolipoproteinB-100, [apoB-100], coupling reaction that generates Lp(a). Conditioned media from 293 cells (ATCC CRL-1573), permanently transfected with an apo(a) 17-kringle cDNA expression construct (pcDNA-AMP, In Vitrogen, Carlsbad, Calif.) using standard molecular biology techniques, was used as a source of recombinant apo(a) is diluted 1:3 with phosphate buffered saline (PBS) and 90 μL is pipetted into each well of a 96-well plate and placed into a 37° C. incubator for 10 minutes. Twenty microliters of a 0.3 to 50 μM solution of a compound of the present invention in PBS is added to the warmed plate. Ninety microliters of HepG2 (ATCC HB-8065) cell conditioned media diluted 1:3 with PBS is added to the apo(a)/compound mixture and mixed by pipetting up and down 5 times. The reaction is incubated for 67 minutes in a 37° C. incubator. A 100 μL aliquot of the reaction is removed and assayed for its Lp(a) content by an enzyme linked immunosorbent assay (ELISA).

[2] = tested on: Lp(a) production in HepG2^K17 cells; test: LPA3 screen: inhibition of Lp(a) production in transfected HepG2 cells, Lp(a) in media by ELISA; type: cell-based; conditions: 8 hours, 0.3 to 50 μM compound, Lp(a) normalized for total protein, read-out: Lp A3 IC50
Experimental: The LPA3 screen is used to identify compounds that inhibit Lp(a) production. This screen employs permanently transfected HepG2 cells (HepG2^K17) that are generated using an apo(a) 17-kringle cDNA expression construct (pcDNA-AMP, In Vitrogen, Carlsbad, Calif.) in accordance with methods that are well-known in molecular biology.
HepG2^K17 cells are seeded in 96-well plates at a density of 75,000 cells per well in 0.25 mL of Dulbecco's Modified Eagle Media (DMEM) containing 10% fetal bovine serum (FBS). Seeded plates are incubated overnight in a 37° C., 5% CO2/95% 02 incubator. The media is removed, replaced with (1) fresh media, or (2) fresh media plus 0.3 to 50 μM of a compound of the present invention in 20 μL of PBS, and the plates returned to the incubator for 8 hours. After the additional 8 hours of incubation, Lp(a) is assayed in the media by ELISA. Cells are digested with 0.5N NaOH overnight and assayed for total protein. Lp(a) values are normalized for total protein content.

| Compound | IC50 [1] | IC50 ([2]; Homo sapiens) | IC50 [2] |
| --- | --- | --- | --- |
| COc1ccc(CN(C(=O)c2ccccc2SCc2ccccc2)c2ccc(OC)cc2)cc1 [Example 40, 2-Benzylsulfanyl-N-(4-methoxy-benzyl)-N-(4-methoxy-phenyl)-benzamide] | > 50 µM | 60.4 µM |  |
| COc1ccc(C(=O)N(Cc2cc(C(C)(C)C)cc(C(C)(C)C)c2)c2ccccc2)cc1OC [Example 41, N-(3,5-Di-tert-butyl-benzyl)-3,4-dimethoxy-N-phenyl-benzamide] | > 50 µM | 49.3 µM |  |
| COc1ccc(C(=O)N(Cc2cc(C(F)(F)F)cc(C(F)(F)F)c2)c2ccccc2)cc1OC [Example 42, N-(3,5-Bis-trifluoromethyl-benzyl)-3,4-dimethoxy-N-phenyl-benzamide] | > 50 µM | 70.8 µM |  |
| COc1ccc(C(=O)N(Cc2cc(Br)cc(Br)c2)c2ccccc2)cc1OC [Example 43, N-(3,5-Dibromo-benzyl)-3,4-dimethoxy-N-phenyl-benzamide] | > 50 µM | 31.6 µM |  |
| COc1ccc(CN(C(=O)c2ccc(OC)c(OC)c2)c2ccccc2)cc1 [Example 44, 3,4-Dimethoxy-N-(4-methoxy-benzyl)-N-phenyl-benzamide] | > 50 µM | 51.4 µM |  |
| COc1cccc(CN(C(=O)c2ccc(OC)c(OC)c2)c2ccccc2)c1 [Example 45, 3,4-Dimethoxy-N-(3-methoxy-benzyl)-N-phenyl-benzamide] | > 50 µM | 52.1 µM |  |
| COc1ccc(C(=O)N(Cc2ccc(Cl)c(Cl)c2)c2ccccc2)cc1OC [Example 46, N-(3,4-Dichloro-benzyl)-3,4-dimethoxy-N-phenyl-benzamide] | > 50 µM | 35.1 µM |  |
| COc1ccc(C(=O)N(Cc2ccc3ccccc3c2)c2ccccc2)cc1OC [Example 47, 3,4-Dimethoxy-N-naphthalen-2-ylmethyl-N-phenyl-benzamide] | > 50 µM | 17.3 µM |  |
| COc1ccc(C(=O)N(Cc2ccc(C(C)(C)C)cc2)c2ccccc2)cc1OC [Example 48, N-(4-tert-Butyl-benzyl)-3,4-dimethoxy-N-phenyl-benzamide] | > 50 µM | 30.9 µM |  |
| COc1ccc(C(=O)N(Cc2ccccc2-c2ccccc2)c2ccccc2)cc1OC [Example 49, N-Biphenyl-2-ylmethyl-3,4-dimethoxy-N-phenyl-benzamide] | > 50 µM | 14 µM |  |
| COc1ccccc1N(Cc1ccc(Cl)c(Cl)c1)C(=O)c1ccccc1 [Example 50, N-(3,4-Dichloro-benzyl)-N-(2-methoxy-phenyl)-benzamide] | > 50 µM | 15 µM |  |
| CCN(CC)CCCc1ccc(N(Cc2cc(C(C)(C)C)cc(C(C)(C)C)c2)C(=O)c2ccccc2)cc1 [Example 51, N-(3,5-Di-tert-butyl-benzyl)-N-[4-(3-diethylamino-propyl)-phenyl]-benzamide] | > 50 µM | 24.5 µM |  |
| CCN(CC)CCCc1ccc(N(Cc2cc(C(F)(F)F)cc(C(F)(F)F)c2)C(=O)c2ccccc2)cc1 [Example 52, N-(3,5-Bis-trifluoromethyl-benzyl)-N-[4-(3-diethylamino-propyl)-phenyl]-benzamide] | > 50 µM | 12 µM |  |
| CCN(CC)CCCc1ccc(N(Cc2cc(Br)cc(Br)c2)C(=O)c2ccccc2)cc1 [Example 53, N-(3,5-Dibromo-benzyl)-N-[4-(3-diethylamino-propyl)-phenyl]-benzamide] | > 50 µM | 14.6 µM |  |
| CCN(CC)CCCc1ccc(N(Cc2ccc(OC)cc2)C(=O)c2ccccc2)cc1 [Example 54, N-[4-(3-Diethylamino-propyl)-phenyl]-N-(4-methoxy-benzyl)-benzamide] | > 50 µM | 41.6 µM |  |
| CCN(CC)CCCc1ccc(N(Cc2cccc(OC)c2)C(=O)c2ccccc2)cc1 [Example 55, N-[4-(3-Diethylamino-propyl)-phenyl]-N-(3-methoxy-benzyl)-benzamide] | > 50 µM | 37 µM |  |
| CCN(CC)CCCc1ccc(N(Cc2ccc(Cl)c(Cl)c2)C(=O)c2ccccc2)cc1 [Example 56, N-(3,4-Dichloro-benzyl)-N-[4-(3-diethylamino-propyl)-phenyl]-benzamide] | > 50 µM | 11 µM |  |

| Compound | IC50 [1] | IC50 ([2]; Homo sapiens) | IC50 [2] |
| --- | --- | --- | --- |
| CCN(CC)CCCc1ccc(N(Cc2ccc3ccccc3c2)C(=O)c2ccccc2)cc1 [Example 57, N-[4-(3-Diethylamino-propyl)-phenyl]-N-naphthalen-2-ylmethyl-benzamide] | > 50 µM | 11.4 µM |  |
| CCN(CC)CCCc1ccc(N(Cc2ccccc2-c2ccccc2)C(=O)c2ccccc2)cc1 [Example 58, N-Biphenyl-2-ylmethyl-N-[4-(3-diethylamino-propyl)-phenyl]-benzamide] | > 50 µM | 11.6 µM |  |
| Cc1ccsc1C(=O)N(Cc1ccc2c(c1)C(C)(C)CCC2(C)C)c1ccc(I)cc1 [Example 59, 3-Methyl-thiophene-2-carboxylic acid (4-iodo-phenyl)-(5,5,8,8-tetramethyl-5,6,7,8-tetrahydro-naphthalen-2-ylmethyl)-amide] | > 50 µM | 41.1 µM |  |
| COc1ccc(CN(C(=O)c2ccccc2)c2ccccc2)cc1 [Example 60, N-(4-Methoxy-benzyl)-N-phenyl-benzamide] | > 50 µM | 28.8 µM |  |
| COc1cccc(CN(C(=O)c2ccccc2)c2ccccc2)c1 [Example 61, N-(3-Methoxy-benzyl)-N-phenyl-benzamide] | > 50 µM | 47.1 µM |  |
| COc1cc(C(=O)N(Cc2ccc3ccccc3c2)c2cnc3ccccc3c2)cc(OC)c1OC [Example 62, 3,4,5-Trimethoxy-N-naphthalen-2-ylmethyl-N-quinolin-3-yl-benzamide] | > 50 µM | 22.2 µM |  |
| COc1cc(C(=O)N(Cc2ccc(C(C)(C)C)cc2)c2cnc3ccccc3c2)cc(OC)c1OC [Example 63, N-(4-tert-Butyl-benzyl)-3,4,5-trimethoxy-N-quinolin-3-yl-benzamide] | > 50 µM | 25.1 µM |  |
| COc1cc(C(=O)N(Cc2ccccc2-c2ccccc2)c2cnc3ccccc3c2)cc(OC)c1OC [Example 64, N-Biphenyl-2-ylmethyl-3,4,5-trimethoxy-N-quinolin-3-yl-benzamide] | > 50 µM | 13.1 µM |  |
| COc1ccc(N(Cc2ccc3c(c2)C(C)(C)CCC3(C)C)C(=O)c2cc(OC)c(OC)c(OC)c2)cn1 [Example 65, 3,4,5-Trimethoxy-N-(6-methoxy-pyridin-3-yl)-N-(5,5,8,8-tetramethyl-5,6,7,8-tetrahydro-naphthalen-2-ylmethyl)-benzamide] | > 50 µM | 32.6 µM |  |
| COc1ccc(N(Cc2cc(C(C)(C)C)cc(C(C)(C)C)c2)C(=O)c2cc(OC)c(OC)c(OC)c2)cn1 [Example 66, N-(3,5-Di-tert-butyl-benzyl)-3,4,5-trimethoxy-N-(6-methoxy-pyridin-3-yl)-benzamide] | > 50 µM | 19.7 µM |  |
| COc1ccc(N(Cc2ccc(Cl)c(Cl)c2)C(=O)c2cc(OC)c(OC)c(OC)c2)cn1 [Example 67, N-(3,4-Dichloro-benzyl)-3,4,5-trimethoxy-N-(6-methoxy-pyridin-3-yl)-benzamide] | > 50 µM | 54.6 µM |  |
| CC(C)c1ccc(C(=O)N(Cc2ccc3c(c2)C(C)(C)CCC3(C)C)c2cccnc2)cc1 [Example 68, 4-Isopropyl-N-pyridin-3-yl-N-(5,5,8,8-tetramethyl-5,6,7,8-tetrahydro-naphthalen-2-ylmethyl)-benzamide] | > 50 µM | 39.8 µM |  |
| COc1cccc(CN(C(=O)c2ccc(C(C)C)cc2)c2cccnc2)c1 [Example 69, 4-Isopropyl-N-(3-methoxy-benzyl)-N-pyridin-3-yl-benzamide] | > 50 µM | 18.8 µM |  |
| CC(C)c1ccc(C(=O)N(Cc2ccc3ccccc3c2)c2cccnc2)cc1 [Example 70, 4-Isopropyl-N-naphthalen-2-ylmethyl-N-pyridin-3-yl-benzamide] | > 50 µM | 7.2 µM |  |
| CC(C)c1ccc(C(=O)N(Cc2ccc(C(C)(C)C)cc2)c2cccnc2)cc1 [Example 71, N-(4-tert-Butyl-benzyl)-4-isopropyl-N-pyridin-3-yl-benzamide] | > 50 µM | 43 µM |  |
| N-Biphenyl-2-ylmethyl-N-(3,4-dimethoxy-phenyl)-2-phenylmethanesulfinyl- [Example 143] |  |  | 1.6 µM |
